Experiment [1] relates to cotton aphid, green peach aphid, greenhouse whitefly, two-spotted spider mite. As to conditions: in vivo.
The next experiment deals with greenhouse whitefly. Kind of experiment: Greenhouse whitefly controlling effect (cucumber dip). The class given is in vivo, Trialeurodes vaporariorum. As to conditions: wettable powder per Formulation Example 2, active ingredient 100 μg/ml, 25° C., after 120 hours.

Turning to `O=C(N=C1SCCN1Cc1ccc(Cl)nc1)OCC1CC1` [Compound 139], the pest controlling effects entry in experiment [1] was “excellent pest controlling effects”.
The same measure, in the same setting: with `O=C(N=C1SCCN1Cc1ccc(Cl)nc1)C1CC1(F)F` (stereo not shown) [Compound 103] the entry was “excellent pest controlling effects”.
On the same count and under the same terms, with `CSCCC(=O)N=C1SCCN1Cc1ccc(Cl)nc1` [Compound 90] the entry was “excellent pest controlling effects”.
Same read-out and setting: with `O=C(N=C1SCCN1Cc1ccc(Cl)nc1)OC1CCOCC1` [Compound 146] the entry was “excellent pest controlling effects”.
`CONC(=O)N=C1SCCN1Cc1ccc(Cl)nc1` [Compound 106]: the pest controlling effects result in experiment [1] is “excellent pest controlling effects”.
For `CSCCOC(=O)N=C1SCCN1Cc1ccc(Cl)nc1` [Compound 119], in experiment [1], the pest controlling effects entry is reported as “excellent pest controlling effects”.
As to `CC(C)=CCOC(=O)N=C1SCCN1Cc1ccc(Cl)nc1` [Compound 135], the pest controlling effects entry in experiment [1] is “excellent pest controlling effects”.
As for `CC(=O)N=C1SCCN1Cc1ccc(Cl)nc1` [Compound 72], the pest controlling effects result in experiment [1] is recorded as “excellent pest controlling effects”.
The same measure, in the same setting: with `O=C(N=C1SCCN1Cc1ccc(Cl)nc1)OCCCF` [Compound 122] the entry was “excellent pest controlling effects”; with `CCC(C)OC(=O)N=C1SCCN1Cc1ccc(Cl)nc1` (stereo not shown) [Compound 130], “excellent pest controlling effects”.
Consider `CCCCOC(=O)N=C1SCCN1Cc1ccc(Cl)nc1` [Compound 128], for which the pest controlling effects result in experiment [1] is given as “excellent pest controlling effects”.
With `CC(C)COC(=O)N=C1SCCN1Cc1ccc(Cl)nc1` [Compound 129], the pest controlling effects result in experiment [1] is “excellent pest controlling effects”.
Same read-out and setting: with `CCCCCOC(=O)N=C1SCCN1Cc1ccc(Cl)nc1` [Compound 136] the entry was “excellent pest controlling effects”.
Take `O=C(N=C1SCCN1Cc1ccc(Cl)nc1)C1CC1` [Compound 92]: the pest controlling effects result in experiment [1] is “excellent pest controlling effects”.
Turning to `COCCOC(=O)N=C1SCCN1Cc1ccc(Cl)nc1` [Compound 118], the pest controlling effects entry in experiment [1] is reported as “excellent pest controlling effects”.
On to `O=C(N=C1SCCN1Cc1ccc(Cl)nc1)OCC(F)F` [Compound 115], for which the pest controlling effects result in experiment [1] was “excellent pest controlling effects”.
On to `O=C(N=C1SCCN1Cc1ccc(Cl)nc1)OCC1CCOC1` (stereo not shown) [Compound 144], for which the pest controlling effects entry in experiment [1] is given as “excellent pest controlling effects”.
Take `O=C(N=C1SCCN1Cc1ccc(Cl)nc1)C(F)F` [Compound 76]: in experiment [1], the pest controlling effects result is listed as “excellent pest controlling effects”.
For `C=CCOC(=O)N=C1SCCN1Cc1ccc(Cl)nc1` [Compound 126], in experiment [1], the pest controlling effects entry was “excellent pest controlling effects”.
In the case of `CCOC(=O)N=C1SCCN1Cc1ccc(Cl)nc1` [Compound 113], the pest controlling effects result in experiment [1] was “excellent pest controlling effects”.
As to `O=C(N=C1SCCN1Cc1ccc(Cl)nc1)C(Cl)(Cl)Cl` [Compound 5], in experiment [1], the pest controlling effects result is listed as “excellent pest controlling effects”.
For the molecule `CCCOC(=O)N=C1SCCN1Cc1ccc(Cl)nc1` [Compound 43], the pest controlling effects result in experiment [1] is “excellent pest controlling effects”.
Consider `O=C(N=C1SCCN1Cc1ccc(Cl)nc1)OCCF` [Compound 114], for which, in experiment [1], the pest controlling effects result is given as “excellent pest controlling effects”.
For the molecule `CC(C)OC(=O)N=C1SCCN1Cc1ccc(Cl)nc1` [Compound 44], in experiment [1], the pest controlling effects result is recorded as “excellent pest controlling effects”.
`O=C(/N=C1\SCCN1Cc1ccc(Cl)nc1)C(F)(F)F` [Formula (12)] returned a lethality in the experiment on greenhouse whitefly of 25%.
Turning to `O=C(N=C1SCCN1Cc1ccc(Cl)nc1)OCCCl` [Compound 45], the pest controlling effects entry in experiment [1] was “excellent pest controlling effects”.
Turning to `COCC(=O)N=C1SCCN1Cc1ccc(Cl)nc1` [Compound 78], the pest controlling effects entry in experiment [1] was “excellent pest controlling effects”.
For `O=C(CCl)N=C1SCCN1Cc1ccc(Cl)nc1` [Compound 73], the pest controlling effects entry in experiment [1] is “excellent pest controlling effects”.
